For 24 compounds, TGI and GI50 results are on record in PubChem BioAssay (NCI).

Among the test systems are RPMI-8226 leukemia; COLO 205 colon; MALME-3M melanoma; CAKI-1 renal; SK-MEL-2 melanoma; SK-OV-3 ovarian; SN12C renal; NCI-H522 lung; SK-MEL-5 melanoma; HS 578T breast.
Holding throughout (test): inhibition of tumour cell growth, NCI panel, 48 h

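Step 1: Grow cells in 96-well plates. Step 2: Expose to compound for 48 hours at 5 concentrations. Step 3: Interpolate endpoints linearly; if unreached, use highest concentration. GI50 is the concentration that inhibits growth by half. TGI denotes the concentration required for complete inhibition of growth.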

Regarding `FC(F)(F)P1C2C=CC(CC2)C1(F)F` (configuration not stated), the TGI with RPMI-8226 leukemia, with COLO 205 colon, in the test with MALME-3M melanoma, with CAKI-1 renal, in the test on SK-MEL-2 melanoma and in the test on SK-OV-3 ovarian was over 100 µM throughout. Besides, the TGI with SN12C renal, in the test on NCI-H522 lung and in the test on SK-MEL-5 melanoma was over 100 µM each time.

Turning to `O=C(O)C(CS)NCc1c2ccccc2[n+]([O-])c2ccccc12` (configuration not stated), the TGI was 92.4 µM in the test with RPMI-8226 leukemia; over 100 µM in the test on COLO 205 colon; over 100 µM in the test with MALME-3M melanoma; over 100 µM in the test with CAKI-1 renal; over 100 µM with SK-MEL-2 melanoma; over 100 µM in the test on SK-OV-3 ovarian. For the same compound, the TGI with SN12C renal, in the test on NCI-H522 lung and in the test with SK-MEL-5 melanoma was over 100 µM throughout.

With `CCOc1cc(/C=N\N(C)C)cc(/C=N\N(C)C)c1O`, the TGI in the test on RPMI-8226 leukemia was over 100 µM; with COLO 205 colon, 34.3 µM; with MALME-3M melanoma, over 100 µM; in the test with CAKI-1 renal, 46.8 µM; in the test on HS 578T breast, over 100 µM; with SK-MEL-2 melanoma it was 77 µM. Besides, the TGI was over 100 µM in the test on SK-OV-3 ovarian, over 100 µM in the test with SN12C renal and 73.2 µM in the test on SK-MEL-5 melanoma.

Consider `CC(=O)OCCC1c2ccccc2-n2nc(-c3ccccc3)c(O)c21` (configuration not stated), for which the TGI with RPMI-8226 leukemia was 33.7 µM; with COLO 205 colon it was 40.1 µM; with CAKI-1 renal, 33.6 µM; with HS 578T breast, 54.9 µM; with SK-MEL-2 melanoma, 96.6 µM; in the test on SN12C renal it was 31.1 µM. For the same compound, the results for the TGI in the test on NCI-H522 lung and with SK-MEL-5 melanoma were 32.3 µM and 33 µM, respectively.

In the case of `COCCOCN(C(=O)C1=CCC2(CC1)OCCO2)c1ccccc1I`, the TGI in the test with RPMI-8226 leukemia, in the test on COLO 205 colon, with CAKI-1 renal, with SK-MEL-2 melanoma, in the test with SK-OV-3 ovarian and in the test on SN12C renal was over 50 µM throughout. This compound also gave a TGI with SK-MEL-5 melanoma of over 50 µM.

For the compound `Cc1cc2nc(N3C(=O)/C(=C/c4cccc([N+](=O)[O-])c4)N=C3c3ccccc3)sc2cc1C`, the TGI in the test on RPMI-8226 leukemia is 48.1 µM; with COLO 205 colon it was over 100 µM; with CAKI-1 renal, over 100 µM; in the test with HS 578T breast, over 100 µM; with SK-MEL-2 melanoma, 60 µM; in the test with SK-OV-3 ovarian, over 100 µM. The TGI in the test on SN12C renal and in the test on SK-MEL-5 melanoma was over 100 µM each time.

With `Cc1c(C(=O)CSc2nc3ccc([N+](=O)[O-])cc3[nH]2)c(=O)n(-c2ccccc2)n1C`, the TGI with RPMI-8226 leukemia, in the test on COLO 205 colon, in the test with MALME-3M melanoma, in the test on CAKI-1 renal, in the test with SK-MEL-2 melanoma and in the test with SK-OV-3 ovarian was over 100 µM throughout. The TGI in the test on SN12C renal, with NCI-H522 lung and in the test on SK-MEL-5 melanoma was over 100 µM in each case.

For the compound `CC(C)C1CC=NN1C(=O)OC(C)(C)C` (configuration not stated), the TGI in the test with RPMI-8226 leukemia, with COLO 205 colon, with CAKI-1 renal, in the test with HS 578T breast, in the test on SK-OV-3 ovarian and with SN12C renal was over 100 µM throughout. For the same compound, the TGI with NCI-H522 lung and in the test with SK-MEL-5 melanoma was over 100 µM throughout.

In the case of `CC(=O)O[C@H]1C(=O)[C@@]2(C)C([C@H](OC(=O)c3ccccc3)[C@]3(O)C[C@H](OC(=O)[C@H](O)[C@H](NC(=O)c4ccccc4)c4ccc(Cl)cc4)C(C)=C1C3(C)C)C1(OC(C)=O)CO[C@@H]1C[C@@H]2O` (some centres not stated), the TGI in the test on RPMI-8226 leukemia amounted to 4.67 µM; in the test with COLO 205 colon, 0.00842 µM; in the test on MALME-3M melanoma, 26.3 µM; in the test with CAKI-1 renal, 23.9 µM; in the test with SK-MEL-2 melanoma, 0.0635 µM; in the test on NCI-H522 lung it was 0.00369 µM. This compound gave a TGI in the test on SK-MEL-5 melanoma of 1.76 µM.

For `CCN(CC)CCNC(=O)c1ccc([N+](=O)[O-])cc1OC`, the TGI in the test on COLO 205 colon, with MALME-3M melanoma, in the test on CAKI-1 renal, in the test with SK-MEL-2 melanoma, in the test on SK-OV-3 ovarian and with SN12C renal was over 100 µM throughout. For the same compound, the TGI with NCI-H522 lung and in the test with SK-MEL-5 melanoma was over 100 µM throughout.

For `CC1=C2C(=O)O[C@@H](c3ccoc3)[C@]2(C)CCC1=O`, the TGI in the test with RPMI-8226 leukemia, in the test with COLO 205 colon, in the test on CAKI-1 renal, in the test with SK-MEL-2 melanoma, with SK-OV-3 ovarian and with SN12C renal was over 100 µM each time. In addition, the TGI in the test with SK-MEL-5 melanoma was over 100 µM.

Take `COC(=O)[C@@H]1C=C[C@@H](C#N)n2c(=O)n(-c3ccccc3)c(=O)n21`: the TGI in the test on RPMI-8226 leukemia was 73.3 µM; with COLO 205 colon, over 100 µM; in the test with CAKI-1 renal it was over 100 µM; in the test on HS 578T breast it was over 100 µM; with SK-OV-3 ovarian, over 100 µM; in the test with SN12C renal, 95 µM. Further, the results for the TGI with NCI-H522 lung and in the test with SK-MEL-5 melanoma were 32.4 µM and over 100 µM, respectively.

For the compound `CCOc1ccc2ccccc2c1NC1=NCCO1`, the TGI in the test on RPMI-8226 leukemia was 59.4 µM; in the test on COLO 205 colon, over 100 µM; with MALME-3M melanoma it was over 100 µM; in the test on HS 578T breast it was 78.2 µM; in the test on SK-OV-3 ovarian it was over 100 µM; in the test on SN12C renal, over 100 µM. The compound further registered a TGI in the test on SK-MEL-5 melanoma of over 100 µM.

Turning to `COc1cc(C2CC(c3cccc(Nc4ccncc4)c3)=NN2c2cc(Cl)cc(Cl)c2)cc(OC)c1OC` (configuration not stated), the GI50 with CAKI-1 renal was 1.53 µM; with SK-MEL-2 melanoma, 2.05 µM; in the test with SK-OV-3 ovarian, 1.86 µM; with SN12C renal it was 1.66 µM; with SK-MEL-5 melanoma, 1.8 µM. Moreover, the TGI in the test with CAKI-1 renal turned out to be 2.91 µM; with SK-MEL-2 melanoma, 4.13 µM; with SK-OV-3 ovarian, 3.89 µM; in the test on SN12C renal it was 3.14 µM; with SK-MEL-5 melanoma, 3.24 µM.

With `CCOc1ccc(N2C(=O)C3c4[nH]c5ccccc5c4C4CCC(C(C)(C)C)CC4C3C2=O)cc1` (configuration not stated), the TGI with RPMI-8226 leukemia, in the test on COLO 205 colon, in the test with MALME-3M melanoma, in the test with SK-OV-3 ovarian, in the test on SN12C renal and in the test on NCI-H522 lung was over 100 µM each time. In the test on SK-MEL-5 melanoma, this compound showed a TGI of over 100 µM.

For the compound `O=[N+]([O-])c1cccc(N=C2c3ccccc3CN2c2cccc([N+](=O)[O-])c2)c1`, the TGI in the test on RPMI-8226 leukemia, in the test with COLO 205 colon, with CAKI-1 renal, in the test on HS 578T breast, in the test on SK-MEL-2 melanoma and with SK-OV-3 ovarian was over 100 µM throughout. The TGI in the test with SN12C renal, in the test with NCI-H522 lung and in the test with SK-MEL-5 melanoma was over 100 µM throughout.

Consider `O=C(Cc1ccccc1)NN1C(=O)C(Cl)C1c1cccc(O)c1` (configuration not stated), for which the TGI with RPMI-8226 leukemia is 10.1 µM; with COLO 205 colon, 32.9 µM; in the test on MALME-3M melanoma it was 76.3 µM; with CAKI-1 renal, 34.8 µM; in the test with SK-MEL-2 melanoma, 59.5 µM; with SK-OV-3 ovarian, 80.5 µM. The TGI with SN12C renal came out at 33.4 µM; with NCI-H522 lung, 23.2 µM.

Turning to `O=C1C=C(N2CCCC2)C=C(N2CCCC2)C1`, the TGI with RPMI-8226 leukemia, with COLO 205 colon, with MALME-3M melanoma, with CAKI-1 renal, with SK-MEL-2 melanoma and in the test with SK-OV-3 ovarian was over 100 µM in each case. The TGI with NCI-H522 lung and in the test on SK-MEL-5 melanoma was over 100 µM each time.

On to `O=C1CC2CC=C[C@H]3c4cc5c(cc4C(=O)N1C23)OCO5` (some centres not stated), for which the TGI with RPMI-8226 leukemia, in the test with COLO 205 colon, with MALME-3M melanoma, in the test with SK-OV-3 ovarian, in the test on SN12C renal and in the test with NCI-H522 lung was over 50 µM in each case.

With `O=c1[nH]c2cc(C(F)(F)F)ccc2nc1Cc1ccccc1`, the TGI with RPMI-8226 leukemia was over 100 µM; in the test with COLO 205 colon it was over 100 µM; in the test with CAKI-1 renal, over 100 µM; in the test with HS 578T breast, over 100 µM; in the test on SK-MEL-2 melanoma it was over 100 µM; in the test with SK-OV-3 ovarian it was 87.4 µM. The compound further returned a TGI with SK-MEL-5 melanoma of over 100 µM.

As for `Cc1nc(-c2ccccc2)c(C)n2c1nc1ccccc12`, the TGI in the test with RPMI-8226 leukemia is 40.6 µM; in the test with COLO 205 colon it was over 100 µM; with MALME-3M melanoma, over 100 µM; in the test on CAKI-1 renal, over 100 µM; in the test on HS 578T breast it was over 100 µM; in the test with SK-MEL-2 melanoma, 45.9 µM. The TGI with SK-OV-3 ovarian was 46.3 µM; in the test on SN12C renal, over 100 µM.

As for `COC(=O)C1Cc2c([nH]c3ccccc23)C(c2cccc(O)c2)N1` (configuration not stated), the TGI with RPMI-8226 leukemia was 87.3 µM; in the test with COLO 205 colon, 90.3 µM; in the test on CAKI-1 renal, over 100 µM; in the test on HS 578T breast, over 100 µM; in the test with SK-MEL-2 melanoma, 83.3 µM; with SK-OV-3 ovarian, over 100 µM. In addition, the TGI in the test on SN12C renal, in the test with NCI-H522 lung and in the test with SK-MEL-5 melanoma was over 100 µM each time.

On to `O=C1Nc2cccc3ncn(c23)C2=C1CCCC2`, for which the TGI in the test on RPMI-8226 leukemia, in the test on COLO 205 colon, in the test on MALME-3M melanoma, with SK-MEL-2 melanoma, with SK-OV-3 ovarian and with SN12C renal was over 100 µM throughout. The TGI in the test with NCI-H522 lung and in the test with SK-MEL-5 melanoma was over 100 µM in each case.

With `CCCCOC(=O)C(=O)C(CC(C(=O)Cc1ccccc1)c1ccccc1)C(=O)C=C(C)C` (configuration not stated), the TGI in the test with COLO 205 colon, in the test on CAKI-1 renal, with HS 578T breast, in the test on SK-MEL-2 melanoma, with SK-OV-3 ovarian and in the test with SN12C renal was over 100 µM each time. Also, the TGI in the test with NCI-H522 lung and in the test with SK-MEL-5 melanoma was over 100 µM each time.
